Results from ChEMBL document CHEMBL4402559, “Structure-Based Design and Pharmacokinetic Optimization of Covalent Allosteric Inhibitors of the Mutant GTPase KRASG12C” (J Med Chem, 2020).
One block for each compound: values may come before it. Calls of active or inactive are those of the source. The calls are words filed in the database; no cut-off is given here.

Experiments:
[1] = Volume of distribution at steady state in Han Wistar rat at 2 umol/kg, po or 1 umol/kg, iv; details: in vivo
GTPase KRas = GTPase KRas (Homo sapiens, UniProt P01116, G12C); experiment: Inhibition of GDP bound biotinylated human C-terminal Avi/His6-tagged KRAS G12C mutant (1 to 166 residues) expressed in Escherichia coli BL21 (DE3) assessed as reduction in SOS1-mediated GDP/GTP nucleotide exchange by preventing recognition between KRAS G12C mutant and Ras binding domain of N-terminal Avi/GST-tagged Raf-1 (51 to 149 residues) preincubated for 4 hrs followed by SOS1 and GTPgammaS addition by FRET assay
in vivo = details: Han Wistar, rat, po, 2 umol/kg
[2] = Intrinsic clearance in rat hepatocytes assessed per 10^-6 cells; assay type: ADME, cell-based, Hepatocyte
[3] = Intrinsic clearance in human liver microsomes; assay type: ADME, Microsome; details: for microsomal CLint: liver microsomes, read-out: CLH
[4] = Efflux ratio of apparent permeability in human Caco2 cells at 10 uM at pH 7.4; assay type: ADME, cell-based; details: Caco-2, pH 7.4
[5] = Clearance in Han Wistar rat at 2 umol/kg, po or 1 umol/kg, iv; details: in vivo
[6] = Distribution coefficient, log D of compound at pH 7.4; assay type: physicochemical; details: octanol/water
[7] = GSH reactivity in PBS buffer assessed as half life at pH 7.4 and 37 degree C in presence of glutathione; assay type: physicochemical; details: PBS buffer with glutathione
[8] = system: GTPase KRas (Homo sapiens), P01116 [G12C]; experiment: Inhibition of KRAS G12C mutant expressed in human HCC44 cells assessed as […] at 1 uM measured after 6 hrs by TQ-UPLC/MS analysis relative to control; assay type: cell-based
[9] = molecular target: GTPase KRas (Homo sapiens) (UniProt P01116); experiment: Inhibition of wild type KRAS expressed in human PC9 cells assessed as […] at 1 uM measured after 6 hrs by TQ-UPLC/MS analysis; assay type: cell-based
[10] = system: GTPase KRas (Homo sapiens), P01116 [G12C]; experiment: Inhibition of KRAS G12C mutant expressed in human Calu1 cells assessed as […] at 1 uM measured after 6 hrs by TQ-UPLC/MS analysis relative to control; assay type: cell-based
Mus musculus = experiment: Decrease in DUSP6 mRNA level in tumor of athymic NU-Fox1nu mouse xenografted with human MIAPaca2 cells at 10 to 100 mg/kg, po qd measured at 3 to 24 hrs post-treatment by qRT-PCR analysis; assay type: functional, organism-based
Lu-99 cell line [11] = experiment: Antiproliferative activity against human LU99 cells expressing KRAS G12C mutant assessed as cell growth inhibition measured after 5 days by sytox green dye staining based 2D proliferation assay; assay type: functional
[12] = system: GTPase KRas (Homo sapiens), P01116 [G12C]; experiment: Binding affinity to KRAS G12C mutant in human […] cell lysate assessed as trypsin-mediated biotinylated cysteine residues digestion by measuring reduction in protein level at 4 uM prelabeled with iodoacetamide desthiobiotin followed by compound treatment measured after 4 hrs by MS analysis relative to control; assay type: subcellular
SW1573 [13] = experiment: Antiproliferative activity against human SW1573 cells expressing KRAS G12C mutant assessed as cell growth inhibition cultured in soft agar medium containing compounds and supplemented with fresh medium for every 7 days by 3D soft agar proliferation assay; assay type: functional, cell-based
[14] = system: GTPase KRas (Homo sapiens), P01116 [G12C]; experiment: Inhibition of KRAS G12C mutant expressed in human H1792 cells assessed as […] at 1 uM measured after 6 hrs by TQ-UPLC/MS analysis relative to control; assay type: cell-based
[15] = system: GTPase KRas (Homo sapiens), P01116 [G12C]; experiment: Inhibition of KRAS G12C mutant expressed in human SW1573 cells assessed as […] at 1 uM measured after 6 hrs by TQ-UPLC/MS analysis relative to control; assay type: cell-based
[16] = system: GTPase KRas (Homo sapiens), P01116 [G12C]; experiment: Inhibition of KRAS G12C mutant expressed in human HOP62 cells assessed as […] at 1 uM measured after 6 hrs by TQ-UPLC/MS analysis relative to control; assay type: cell-based
[17] = system: GTPase KRas (Homo sapiens), P01116 [G12C]; experiment: Inhibition of KRAS G12C mutant expressed in human H2122 cells assessed as […] at 1 uM measured after 6 hrs by TQ-UPLC/MS analysis relative to control; assay type: cell-based
Lu-99 cell line [18] = experiment: Antiproliferative activity against human LU99 cells expressing KRAS G12C mutant assessed as cell growth inhibition cultured in soft agar medium containing compounds and supplemented with fresh medium for every 7 days by 3D soft agar proliferation assay; assay type: functional, cell-based
[19] = system: GTPase KRas (Homo sapiens), P01116 [G12C]; experiment: Inhibition of KRAS G12C mutant expressed in human H1373 cells assessed as […] at 1 uM measured after 6 hrs by TQ-UPLC/MS analysis relative to control; assay type: cell-based
[20] = system: GTPase KRas (Homo sapiens), P01116 [UNDEFINED MUTATION]; experiment: Inhibition of KRas mutant expressed in human H2291 cells assessed as […] at 1 uM measured after 6 hrs by TQ-UPLC/MS analysis; assay type: cell-based
[21] = system: GTPase KRas (Homo sapiens), P01116 [G12C]; experiment: Inhibition of KRAS G12C mutant expressed in human H23 cells assessed as […] at 1 uM measured after 6 hrs by TQ-UPLC/MS analysis relative to control; assay type: cell-based
MIA PaCa-2 = experiment: Antitumor activity against human MIAPaCa2 cells harboring KRAS G12C mutant xenografted in orally dosed athymic NU-Fox1nu nude mouse assessed as tumor regression administered daily for 2 weeks and further treated for 3 weeks; assay type: functional, organism-based
[22] = system: GTPase KRas (Homo sapiens), P01116 [G12C]; experiment: Inhibition of KRAS G12C mutant expressed in human LU99 cells assessed as […] at 1 uM measured after 6 hrs by TQ-UPLC/MS analysis relative to control; assay type: cell-based
SW1573 [23] = experiment: Antiproliferative activity against human SW1573 cells harboring KRAS G12C mutant assessed as cell growth inhibition measured after 5 days by sytox green dye staining based 2D proliferation assay; assay type: functional
[24] = system: GTPase KRas (Homo sapiens), P01116 [UNDEFINED MUTATION]; experiment: Inhibition of KRas mutant expressed in human A549 cells assessed as […] at 1 uM measured after 6 hrs by TQ-UPLC/MS analysis; assay type: cell-based
[25] = system: GTPase KRas (Homo sapiens), P01116 [G12C]; experiment: Inhibition of KRAS G12C mutant in human H358 cells assessed as […] at 1 uM measured after 6 hrs by TQ-UPLC/MS analysis relative to control; assay type: cell-based
[26] = system: GTPase KRas (Homo sapiens), P01116 [G12C]; experiment: Inhibition of KRAS G12C mutant expressed in human LU65 cells assessed as […] at 1 uM measured after 6 hrs by TQ-UPLC/MS analysis relative to control; assay type: cell-based

SMILES: C=CC(=O)N1C[C@@H]2COc3cnc4cc(-c5c(O)cccc5F)c(Cl)cc4c3N2C[C@H]1C
- Vd [1]: 0.6 L/kg
- IC50 (GTPase KRas): 52 nM
- bioavailability (in vivo): 96%
- hepatocyte intrinsic clearance [2]: 42 µL/min
- microsomal CLint [3]: 32 µL/min/mg
- efflux ratio at 10 µM [4]: 0.7
- clearance [5]: 7 mL/min/kg
- logD ([6]; read-out: logD): 3.8
- half-life [7]: 5.42 h

- hepatocyte intrinsic clearance [2]: 17 µL/min
- microsomal CLint [3]: 18 µL/min/mg
- efflux ratio at 10 µM [4]: 1.4
- logD ([6]; read-out: logD): 3.3
SMILES: C=CC(=O)N1CCN2c3c(cnc4cc(-c5c(O)cccc5F)c(Cl)cc34)NC[C@H]2C1

- Vd [1]: 1.2 L/kg
- bioavailability (in vivo): 64%
- hepatocyte intrinsic clearance [2]: 32 µL/min
- microsomal CLint [3]: 25 µL/min/mg
- efflux ratio at 10 µM [4]: 0.5
- clearance [5]: 35 mL/min/kg
- logD ([6]; read-out: logD): 3.6
- half-life [7]: 6.93 h
SMILES: C=CC(=O)N1CCN2c3c(cnc4cc(-c5c(O)cccc5F)c(Cl)cc34)OC[C@H]2C1

SMILES: C=CC(=O)N1CCN2c3c(cnc4c(OC)c(-c5c(O)cccc5F)c(Cl)cc34)OC[C@H]2C1 (single isomer, unassigned; atropisomer 2)
- IC50 (GTPase KRas): 70 nM
- hepatocyte intrinsic clearance [2]: 56 µL/min
- microsomal CLint [3]: 40 µL/min/mg
- logD ([6]; read-out: logD): 3

SMILES: C=CC(=O)N1C[C@@H]2COc3cnc4cc(-c5c(O)cccc5F)c(Cl)cc4c3N2C[C@@H]1C
- IC50 (GTPase KRas): 7650 nM
- hepatocyte intrinsic clearance [2]: 74 µL/min
- microsomal CLint [3]: 100 µL/min/mg
- logD ([6]; read-out: logD): 3.7
- half-life [7]: 9.75 h

SMILES: C=CC(=O)N1CCN2c3c(cnc4cc(-c5c(C)ccc6[nH]ncc56)c(Cl)cc34)OC[C@@H]2C1 (single isomer, unassigned; atropisomer 1)
- IC50 (GTPase KRas): 8860 nM
- hepatocyte intrinsic clearance [2]: 67 µL/min
- Intrinsic clearance in human liver microsomes ([3]; microsomes): 121 µL/min/mg
- logD [6]: 4

- hepatocyte intrinsic clearance [2]: 40 µL/min
- microsomal CLint [3]: 28 µL/min/mg
- logD ([6]; read-out: logD): 3.8
SMILES: C=CC(=O)N1CCN2c3c(cnc4c(C)c(-c5c(O)cccc5F)c(Cl)cc34)OC[C@H]2C1 (single isomer, unassigned; atropisomer)

SMILES: C=CC(=O)N1CCN2c3c(cnc4cc(-c5c(O)cccc5F)c(Cl)cc34)NC(=O)[C@H]2C1
- IC50 (GTPase KRas): 73 nM
- hepatocyte intrinsic clearance [2]: 11 µL/min
- microsomal CLint [3]: 34 µL/min/mg
- efflux ratio at 10 µM [4]: 17.9
- logD ([6]; read-out: logD): 3

- inhibition [8]: 79%
- inhibition [9]: inactive
- inhibition [10]: 73%
- Vd [1]: 1 L/kg
- fold change (FC) [12]: > 2
- IC50 (GTPase KRas): < 5 nM
- inhibition [14]: 75%
- bioavailability (in vivo): 94%
- inhibition [15]: 70%
- hepatocyte intrinsic clearance [2]: 11 µL/min
- inhibition [16]: 89%
- microsomal CLint [3]: 21 µL/min/mg
- inhibition [17]: 74%
- inhibition [19]: 86%
- inhibition [20]: inactive
- inhibition [21]: 80%
- efflux ratio at 10 µM [4]: 1.1
- inhibition [22]: 100%
- clearance [5]: 4 mL/min/kg
- logD ([6]; read-out: logD): 3.4
- inhibition [24]: inactive
- inhibition [25]: 82%
- half-life [7]: 5.57 h
- inhibition [26]: 84%
SMILES: C=CC(=O)N1C[C@@H]2C(=O)N(C)c3cnc4c(F)c(-c5c(O)cccc5F)c(Cl)cc4c3N2C[C@H]1C
- inhibition (Mus musculus): Active
- growth inhibition (GI) (Lu-99 cell line [11]): inactive
- growth inhibition (GI) (SW1573 [13]): inactive
- growth inhibition (GI) (Lu-99 cell line [18]): inactive
- Activity (MIA PaCa-2): Dose-dependent effect
- growth inhibition (GI) (SW1573 [23]): inactive

SMILES: C=CC(=O)N1CCN2c3c(cnc4cc(-c5c(C)ccc6[nH]ncc56)c(Cl)cc34)OCC[C@@H]2C1
- IC50 (GTPase KRas): 4340 nM
- hepatocyte intrinsic clearance [2]: 104 µL/min
- microsomal CLint [3]: 81 µL/min/mg
